From patent US7910559B2, “Decladinosyl-macrolides with anti-inflammatory activity” (GlaxoSmithKline istrazivacki centar Zagreb d.o.o., priority 2005, dated 2011)
Read-outs that look alike come from different tables or passages of the source.

Tests used:
Assay type in all cases: cell-based
human TNF-α = test: Inhibition of TNF-α production by stimulated human peripheral blood leukocytes in vitro (ELISA); conditions: Homo sapiens, Leukocyte, PBL, read-out: Percentage of inhibition of TNF-α production; for inhibition at 10 µM: compound 10 μM; for inhibition at 50 µM: compound 50 μM
Experimental: (§1) Substances, used in in vitro experiments, were dissolved in dimethyl sulfoxide (DMSO) (Kemika, Croatia) at concentrations of 50 mM and 10 mM and were further diluted to the final concentrations of […] in 1 mL Dulbecco's modified Eagle medium (DMEM) supplemented with 1% heat inactivated fetal bovine serum (FBS), 1% glutamax, 50 U/ml penicillin, 50 μg/ml streptomycin and 2.5 μg/mL Fungizone (amphotericin B). Media and all media supplements were purchased from Gibco, Australia, except FBS that was from Sigma, USA.
(§2) Peripheral blood leukocytes (PBL) were obtained from venous blood of healthy volunteers by sedimentation on 2% dextran T-500 (Amersham Biosciences, USA) and subsequent centrifugations of leukocyte-rich plasma.
(§3) Peripheral blood leukocytes (PBL), isolated as described above, were seeded in a 48-well plate at a concentration of 3-5×10^6 cell per well in culture medium consisting of RPMI 1640 medium (Institute of Immunology, Croatia) supplemented with 10% heat-inactivated fetal calf serum (FCS, Biowhittaker, USA), 100 U/ml penicillin (Gibco, Australia), 100 μg/ml streptomycin (Gibco, Australia) and 2 mM L-glutamine (Gibco, Australia), and preincubated with the tested compounds for 2 h at 37° C., in an atmosphere of 5% CO2, and 90% humidity. Afterwards, stimuli (Sigma, USA) were added to a final concentration of 2 μg/mL lipopolysaccharide (LPS), 1 μg/mL phorbol 12-myristate 13-acetate (PMA) or 120 μg/mL zymosan. Samples were incubated overnight under conditions described above. At the end of incubation supernatants were transferred to eppendorf tubes and centrifuged for 10 min at 1500 g. Concentrations of human TNF-α, IL-1β, IL-6 and IL-8 were determined in cell supernatants by sandwich ELISA, using capture and detection antibodies (R&D, USA) according to manufacturer's recommendations.
(§4) Inhibition (as percentage) was calculated using the following formula: % inhibition=(1−concentration of cytokines in sample/concentration of cytokines in positive control)×100 where “positive control” refers to stimulated samples not treated with substances.

human IL-1β = test: Inhibition of IL-1β production by stimulated human peripheral blood leukocytes in vitro (ELISA); conditions: Homo sapiens, Leukocyte, PBL, read-out: Percentage of inhibition of IL-1β production; for inhibition at 10 µM: compound 10 μM; for inhibition at 50 µM: compound 50 μM
Experimental: as §1, §2, §3, §4

human IL-8 = test: Inhibition of IL-8 production by stimulated human peripheral blood leukocytes in vitro (ELISA); conditions: Homo sapiens, Leukocyte, PBL, read-out: Percentage of inhibition of IL-8 production; for inhibition at 10 µM: compound 10 μM; for inhibition at 50 µM: compound 50 μM
Experimental: as §1, §2, §3, §4

human IL-6 = test: Inhibition of IL-6 production by stimulated human peripheral blood leukocytes in vitro (ELISA); conditions: Homo sapiens, Leukocyte, PBL, read-out: Percentage of inhibition of IL-6 production; for inhibition at 10 µM: compound 10 μM; for inhibition at 50 µM: compound 50 μM
Experimental: as §1, §2, §3, §4

THP-1 = conditions: human, 24 h
Experimental: (§5) Anti-inflammatory activity of compounds, i.e. observed inhibition of cytokine production and inhibition of proliferation in vitro, is not a consequence of their cytotoxicity.
(§6) Measurement of the succinate dehydrogenase activity in living cells was performed in order to assess the cytotoxicity of compounds of the invention. Cells were cultured for 24 hours in RPMI medium as described above at 37° C., in the presence of the tested compounds at concentrations of 50 μM and 12.5 μM. Afterwards, MTT [3-(4,5-dimethylthiazole-2-yl)-2,5-diphenyl tetrazolium bromide] (Promega, USA) as detection reagent was added and incubated for 0.5-2 hours. The amount of produced MTT-Formazan was determined spectrophotometrically at 490 nm (Mosmann, J. Immunol. Methods, 1983, 65: 55-63).
(§7) Percentage of viable cells was calculated using the following formula: % viable cells=[…]

A549 = conditions: human, 24 h
Experimental: as §5, §6, §7

Hep G2 = conditions: human, 24 h
Experimental: as §5, §6, §7

SMILES | inhibition at 10 µM (human TNF-α; LPS stimulation) [%] | inhibition at 50 µM (human TNF-α; LPS stimulation) [%] | inhibition at 10 µM (human TNF-α; PMA stimulation) [%] | inhibition at 50 µM (human TNF-α; PMA stimulation) [%] | inhibition at 10 µM (human TNF-α; zymosan stimulation) [%] | inhibition at 50 µM (human TNF-α; zymosan stimulation) [%] | inhibition at 10 µM (human IL-1β; LPS stimulation) [%] | inhibition at 50 µM (human IL-1β; LPS stimulation) [%] | inhibition at 10 µM (human IL-1β; PMA stimulation) [%] | inhibition at 50 µM (human IL-1β; PMA stimulation) [%] | inhibition at 10 µM (human IL-1β; zymosan stimulation) [%] | inhibition at 50 µM (human IL-1β; zymosan stimulation) [%] | inhibition at 10 µM (human IL-8; LPS stimulation) [%] | inhibition at 50 µM (human IL-8; LPS stimulation) [%] | inhibition at 10 µM (human IL-8; PMA stimulation) [%] | inhibition at 50 µM (human IL-8; PMA stimulation) [%] | inhibition at 10 µM (human IL-8; zymosan stimulation) [%] | inhibition at 50 µM (human IL-8; zymosan stimulation) [%] | inhibition at 10 µM (human IL-6; LPS stimulation) [%] | inhibition at 50 µM (human IL-6; LPS stimulation) [%] | other results
CC[C@H]1OC(=O)[C@H](C)[C@@H](OC(=O)CCN2CCN(CCN(CC)CC)CC2)[C@H](C)[C@@H](O[C@@H]2O[C@H](C)C[C@H](N(C)C)[C@H]2O)[C@](C)(OC)C[C@@H](C)C(=O)N[C@H](C)[C@@H](O)[C@]1(C)O [Example 18, 6-O-Methyl-3-O-decladinosyl-3-O-{3-[4-(2-Diethylamino-ethyl)-piperazin-1-yl]-propionyl}-9a-aza-9a-homoerythromycin A] | 7 | 0 | 50 | 82 | 12 | 0 | 44 | 73 | 66 | 87 | 32 | 76 | 1 | 30 | 16 | 13 | 3 | 21 | 9 | 50 | inhibition at 10 µM (human IL-6; PMA stimulation): 53%; inhibition at 50 µM (human IL-6; PMA stimulation): 47%; inhibition at 10 µM (human IL-6; zymosan stimulation): 18%; inhibition at 50 µM (human IL-6; zymosan stimulation): 47%; Percentage of viable cells after treatment (THP-1; 12.5 μM): 100%; Percentage of viable cells after treatment (THP-1; 50 μM): 100%; Percentage of viable cells after treatment (A549; 12.5 μM): 100%; Percentage of viable cells after treatment (A549; 50 μM): 100%; Percentage of viable cells after treatment (Hep G2; 12.5 μM): >95%; Percentage of viable cells after treatment (Hep G2; 50 μM): 100%
CC[C@H]1OC(=O)[C@H](C)[C@@H](OC(=O)CCN2CCN(CCN(C)C)CC2)[C@H](C)[C@@H](O[C@@H]2O[C@H](C)C[C@H](N(C)C)[C@H]2O)[C@](C)(OC)C[C@@H](C)C(=O)N[C@H](C)[C@@H](O)[C@]1(C)O [Example 19, 6-O-Methyl-3-O-decladinosyl-3-O-{3-[4-(2-Dimethylamino-ethyl)-piperazin-1-yl]-propionyl}-9a-aza-9a-homoerythromycin A] | 11 | 7 | 53 | 82 | 18 | 12 | 44 | 73 | 66 | 86 | 35 | 80 | 6 | 32 | 14 | 0 | 9 | 26 | 16 | 56 | inhibition at 10 µM (human IL-6; PMA stimulation): 56%; inhibition at 50 µM (human IL-6; PMA stimulation): 61%; inhibition at 10 µM (human IL-6; zymosan stimulation): 19%; inhibition at 50 µM (human IL-6; zymosan stimulation): 44%; Percentage of viable cells after treatment (THP-1; 12.5 μM): 100%; Percentage of viable cells after treatment (THP-1; 50 μM): 100%; Percentage of viable cells after treatment (A549; 12.5 μM): 100%; Percentage of viable cells after treatment (A549; 50 μM): >95%; Percentage of viable cells after treatment (Hep G2; 12.5 μM): 100%; Percentage of viable cells after treatment (Hep G2; 50 μM): 100%
CC[C@H]1OC(=O)[C@H](C)[C@@H](OC(=O)CCN(C)CCO)[C@H](C)[C@@H](O[C@@H]2O[C@H](C)C[C@H](N(C)C)[C@H]2O)[C@](C)(OC)C[C@@H](C)C(=O)N[C@H](C)[C@@H](O)[C@]1(C)O [Example 23, 6-O-Methyl-3-O-decladinosyl-3-O-{3-[(2-Hydroxy-ethyl)-methyl-amino]-propionyl}-9a-aza-9a-homoerythromycin A] | 0 | 97 | 58 | 79 | 0 | 96 | 73 | 100 | 81 | 98 | 70 | 100 | 0 | 95 | 0 | 90 | 0 | 98 | 8 | 100 | inhibition at 10 µM (human IL-6; PMA stimulation): 51%; inhibition at 50 µM (human IL-6; PMA stimulation): 92%; inhibition at 10 µM (human IL-6; zymosan stimulation): 26%; inhibition at 50 µM (human IL-6; zymosan stimulation): 100%; Percentage of viable cells after treatment (THP-1; 12.5 μM): 100%; Percentage of viable cells after treatment (THP-1; 50 μM): 100%; Percentage of viable cells after treatment (A549; 12.5 μM): 100%; Percentage of viable cells after treatment (A549; 50 μM): >95%; Percentage of viable cells after treatment (Hep G2; 12.5 μM): 100%; Percentage of viable cells after treatment (Hep G2; 50 μM): 100%
